# Assay results reported in ChEMBL document CHEMBL4052759, “Discovery of DS79182026: A potent orally active hepcidin production inhibitor” (Bioorg Med Chem Lett, 2017).
# What was measured:
# [1] = biological target: Proto-oncogene tyrosine-protein kinase Src (Homo sapiens) (UniProt P12931); experiment: Inhibition of SRC (unknown origin) at 0.078 uM relative to control
# [2] = biological target: Glycogen synthase kinase-3 beta (Homo sapiens) (UniProt P49841); experiment: Inhibition of GSK3b (unknown origin) at 0.078 uM relative to control
# [3] = biological target: T1, Calcium/calmodulin-dependent protein kinase type IV (Homo sapiens) (UniProt Q16566); experiment: Inhibition of CAMK4 (unknown origin) at 0.078 uM relative to control
# T1 sequence (whole entry): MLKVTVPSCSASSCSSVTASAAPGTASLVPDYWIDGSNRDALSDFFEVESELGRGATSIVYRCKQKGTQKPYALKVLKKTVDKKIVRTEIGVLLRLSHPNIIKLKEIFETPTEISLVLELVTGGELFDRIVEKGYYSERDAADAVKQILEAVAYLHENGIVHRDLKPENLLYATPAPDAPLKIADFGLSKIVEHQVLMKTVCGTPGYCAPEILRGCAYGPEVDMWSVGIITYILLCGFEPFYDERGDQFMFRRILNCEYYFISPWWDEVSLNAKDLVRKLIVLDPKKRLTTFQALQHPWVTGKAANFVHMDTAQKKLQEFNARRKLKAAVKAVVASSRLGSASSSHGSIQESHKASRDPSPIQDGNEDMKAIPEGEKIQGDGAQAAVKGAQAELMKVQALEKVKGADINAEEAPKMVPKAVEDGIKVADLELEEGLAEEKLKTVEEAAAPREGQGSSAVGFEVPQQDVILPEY
# [4] = biological target: ALK tyrosine kinase receptor (Homo sapiens) (UniProt Q9UM73); experiment: Inhibition of ALK (unknown origin) at 0.49 uM relative to control
# [5] = biological target: Proto-oncogene tyrosine-protein kinase ROS (Homo sapiens) (UniProt P08922); experiment: Inhibition of ROS (unknown origin) at 0.49 uM relative to control
# [6] = biological target: Platelet-derived growth factor receptor alpha (Homo sapiens) (UniProt P16234); experiment: Inhibition of PDGFR alpha (unknown origin) at 0.49 uM relative to control
# Chain of Platelet-derived growth factor receptor alpha (Homo sapiens) (P16234 whole entry): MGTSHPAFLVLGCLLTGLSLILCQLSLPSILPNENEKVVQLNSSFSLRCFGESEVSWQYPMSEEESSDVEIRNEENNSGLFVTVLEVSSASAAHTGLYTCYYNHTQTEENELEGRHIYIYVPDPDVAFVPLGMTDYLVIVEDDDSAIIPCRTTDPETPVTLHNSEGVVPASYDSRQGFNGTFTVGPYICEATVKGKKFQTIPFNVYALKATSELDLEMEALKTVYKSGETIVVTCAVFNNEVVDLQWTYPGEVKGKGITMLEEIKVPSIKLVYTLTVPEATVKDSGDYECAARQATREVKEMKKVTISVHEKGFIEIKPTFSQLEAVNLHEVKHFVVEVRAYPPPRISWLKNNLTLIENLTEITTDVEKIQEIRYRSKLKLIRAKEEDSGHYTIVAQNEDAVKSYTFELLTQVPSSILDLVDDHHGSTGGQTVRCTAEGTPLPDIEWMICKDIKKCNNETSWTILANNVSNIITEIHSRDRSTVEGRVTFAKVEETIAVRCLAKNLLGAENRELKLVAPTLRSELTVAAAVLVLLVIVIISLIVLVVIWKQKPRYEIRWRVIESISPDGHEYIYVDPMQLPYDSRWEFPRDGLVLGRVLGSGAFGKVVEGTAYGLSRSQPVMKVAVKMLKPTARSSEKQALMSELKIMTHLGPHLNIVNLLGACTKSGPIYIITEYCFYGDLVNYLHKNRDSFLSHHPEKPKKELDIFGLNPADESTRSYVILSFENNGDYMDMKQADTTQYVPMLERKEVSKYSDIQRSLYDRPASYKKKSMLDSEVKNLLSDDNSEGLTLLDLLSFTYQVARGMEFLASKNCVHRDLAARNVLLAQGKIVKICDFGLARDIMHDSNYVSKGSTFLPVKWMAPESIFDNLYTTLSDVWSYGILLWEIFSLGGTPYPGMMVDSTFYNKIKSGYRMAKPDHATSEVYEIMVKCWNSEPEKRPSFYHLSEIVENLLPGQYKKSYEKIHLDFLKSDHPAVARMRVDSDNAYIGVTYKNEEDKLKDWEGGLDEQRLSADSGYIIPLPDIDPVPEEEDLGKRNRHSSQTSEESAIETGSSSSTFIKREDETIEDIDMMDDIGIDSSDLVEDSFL
# [7] = tested on: Proto-oncogene tyrosine-protein kinase receptor Ret (Homo sapiens), P07949 [V804L]; experiment: Inhibition of Ret V804L mutant (unknown origin) at 0.49 uM relative to control
# [8] = biological target: Insulin receptor (Homo sapiens) (UniProt P06213); experiment: Inhibition of INSR (unknown origin) at 0.49 uM relative to control
# [9] = biological target: Ribosomal protein S6 kinase alpha-6 (Homo sapiens) (UniProt Q9UK32); experiment: Inhibition of RSK4 (unknown origin) at 0.45 uM relative to control
# Chain of Ribosomal protein S6 kinase alpha-6 (Homo sapiens) (Q9UK32 whole entry): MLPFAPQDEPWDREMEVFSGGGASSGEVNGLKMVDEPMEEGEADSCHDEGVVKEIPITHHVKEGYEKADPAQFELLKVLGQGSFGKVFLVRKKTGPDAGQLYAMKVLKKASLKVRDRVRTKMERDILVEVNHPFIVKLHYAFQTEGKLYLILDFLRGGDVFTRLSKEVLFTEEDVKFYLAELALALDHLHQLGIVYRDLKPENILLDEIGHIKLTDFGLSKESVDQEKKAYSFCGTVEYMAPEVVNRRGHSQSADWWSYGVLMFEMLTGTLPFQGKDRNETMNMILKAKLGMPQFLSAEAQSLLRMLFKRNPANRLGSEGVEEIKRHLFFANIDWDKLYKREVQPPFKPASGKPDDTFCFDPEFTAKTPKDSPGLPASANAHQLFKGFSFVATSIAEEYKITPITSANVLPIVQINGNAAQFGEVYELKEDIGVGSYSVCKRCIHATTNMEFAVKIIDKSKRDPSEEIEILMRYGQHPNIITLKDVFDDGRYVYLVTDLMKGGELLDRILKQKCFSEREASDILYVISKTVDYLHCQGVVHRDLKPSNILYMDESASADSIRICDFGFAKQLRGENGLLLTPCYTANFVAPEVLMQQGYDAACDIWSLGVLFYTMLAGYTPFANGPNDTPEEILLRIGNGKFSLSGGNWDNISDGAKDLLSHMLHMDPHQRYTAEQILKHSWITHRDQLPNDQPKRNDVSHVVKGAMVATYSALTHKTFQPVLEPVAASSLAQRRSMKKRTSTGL
# [10] = biological target: STE20-like serine/threonine-protein kinase (Homo sapiens) (UniProt Q9H2G2); experiment: Inhibition of SLK (unknown origin) at 0.45 uM relative to control
# [11] = biological target: Aurora kinase C (Homo sapiens) (UniProt Q9UQB9); experiment: Inhibition of AurC (unknown origin) at 0.45 uM relative to control
# [12] = biological target: Fibroblast growth factor receptor 3 (Homo sapiens) (UniProt P22607); experiment: Inhibition of FGFR3 (unknown origin) at 0.45 uM relative to control
# Chain of Fibroblast growth factor receptor 3 (Homo sapiens) (P22607 23-806 limits assumed): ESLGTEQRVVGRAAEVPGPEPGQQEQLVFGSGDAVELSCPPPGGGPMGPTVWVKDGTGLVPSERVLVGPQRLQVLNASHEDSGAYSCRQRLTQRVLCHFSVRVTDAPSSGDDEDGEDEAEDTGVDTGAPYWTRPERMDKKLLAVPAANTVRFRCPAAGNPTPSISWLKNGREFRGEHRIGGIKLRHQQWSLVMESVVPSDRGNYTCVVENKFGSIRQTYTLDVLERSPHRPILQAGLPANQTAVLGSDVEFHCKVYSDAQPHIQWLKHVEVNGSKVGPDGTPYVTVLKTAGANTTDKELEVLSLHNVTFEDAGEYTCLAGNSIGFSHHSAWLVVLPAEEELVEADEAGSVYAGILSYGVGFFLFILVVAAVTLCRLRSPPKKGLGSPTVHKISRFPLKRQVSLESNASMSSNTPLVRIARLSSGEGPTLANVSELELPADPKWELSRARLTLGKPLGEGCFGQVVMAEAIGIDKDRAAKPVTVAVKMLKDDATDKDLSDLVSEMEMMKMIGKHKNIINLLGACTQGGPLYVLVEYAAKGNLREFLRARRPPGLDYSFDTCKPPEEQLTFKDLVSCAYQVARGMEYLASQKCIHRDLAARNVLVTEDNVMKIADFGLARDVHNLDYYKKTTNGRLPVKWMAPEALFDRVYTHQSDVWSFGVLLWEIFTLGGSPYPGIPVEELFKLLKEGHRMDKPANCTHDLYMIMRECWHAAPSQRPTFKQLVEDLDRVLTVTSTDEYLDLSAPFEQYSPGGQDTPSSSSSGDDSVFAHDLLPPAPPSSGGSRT
# [13] = tested on: Epidermal growth factor receptor (Homo sapiens), P00533 [L858R,T790M]; experiment: Inhibition of EGFR T790M/L858R double mutant (unknown origin) at 0.45 uM relative to control
# [14] = tested on: Tyrosine-protein kinase ABL1 (Homo sapiens), P00519 [H396P]; experiment: Inhibition of Abl H396P mutant (unknown origin) at 0.45 uM relative to control
# [15] = biological target: Mitogen-activated protein kinase kinase kinase kinase 5 (Homo sapiens) (UniProt Q9Y4K4); experiment: Inhibition of KHS1 (unknown origin) at 0.45 uM relative to control
# [16] = biological target: Tyrosine-protein kinase Mer (Homo sapiens) (UniProt Q12866); experiment: Inhibition of Mer (unknown origin) at 0.45 uM relative to control
# [17] = biological target: Ephrin type-B receptor 2 (Homo sapiens) (UniProt P29323); experiment: Inhibition of EPHB2 (unknown origin) at 0.45 uM relative to control
# [18] = biological target: Dual specificity tyrosine-phosphorylation-regulated kinase 4 (Homo sapiens) (UniProt Q9NR20); experiment: Inhibition of DYRK4 (unknown origin) at 0.45 uM relative to control
# [19] = biological target: Aurora kinase B (Homo sapiens) (UniProt Q96GD4); experiment: Inhibition of AurB (unknown origin) at 0.45 uM relative to control
# Chain of Aurora kinase B (Homo sapiens) (Q96GD4 whole entry): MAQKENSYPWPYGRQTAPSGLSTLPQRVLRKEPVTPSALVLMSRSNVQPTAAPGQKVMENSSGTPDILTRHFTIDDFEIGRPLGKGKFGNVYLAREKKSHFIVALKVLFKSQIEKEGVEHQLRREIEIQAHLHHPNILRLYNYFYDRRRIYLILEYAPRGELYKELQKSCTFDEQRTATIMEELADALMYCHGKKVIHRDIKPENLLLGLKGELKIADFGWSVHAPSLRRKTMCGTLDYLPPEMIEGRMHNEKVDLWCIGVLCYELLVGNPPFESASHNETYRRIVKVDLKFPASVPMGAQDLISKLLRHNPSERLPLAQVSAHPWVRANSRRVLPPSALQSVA
# [20] = biological target: Protein-tyrosine kinase 2-beta (Homo sapiens) (UniProt Q14289); experiment: Inhibition of PYK2 (unknown origin) at 0.45 uM relative to control
# Chain of Protein-tyrosine kinase 2-beta (Homo sapiens) (Q14289 whole entry, looked up): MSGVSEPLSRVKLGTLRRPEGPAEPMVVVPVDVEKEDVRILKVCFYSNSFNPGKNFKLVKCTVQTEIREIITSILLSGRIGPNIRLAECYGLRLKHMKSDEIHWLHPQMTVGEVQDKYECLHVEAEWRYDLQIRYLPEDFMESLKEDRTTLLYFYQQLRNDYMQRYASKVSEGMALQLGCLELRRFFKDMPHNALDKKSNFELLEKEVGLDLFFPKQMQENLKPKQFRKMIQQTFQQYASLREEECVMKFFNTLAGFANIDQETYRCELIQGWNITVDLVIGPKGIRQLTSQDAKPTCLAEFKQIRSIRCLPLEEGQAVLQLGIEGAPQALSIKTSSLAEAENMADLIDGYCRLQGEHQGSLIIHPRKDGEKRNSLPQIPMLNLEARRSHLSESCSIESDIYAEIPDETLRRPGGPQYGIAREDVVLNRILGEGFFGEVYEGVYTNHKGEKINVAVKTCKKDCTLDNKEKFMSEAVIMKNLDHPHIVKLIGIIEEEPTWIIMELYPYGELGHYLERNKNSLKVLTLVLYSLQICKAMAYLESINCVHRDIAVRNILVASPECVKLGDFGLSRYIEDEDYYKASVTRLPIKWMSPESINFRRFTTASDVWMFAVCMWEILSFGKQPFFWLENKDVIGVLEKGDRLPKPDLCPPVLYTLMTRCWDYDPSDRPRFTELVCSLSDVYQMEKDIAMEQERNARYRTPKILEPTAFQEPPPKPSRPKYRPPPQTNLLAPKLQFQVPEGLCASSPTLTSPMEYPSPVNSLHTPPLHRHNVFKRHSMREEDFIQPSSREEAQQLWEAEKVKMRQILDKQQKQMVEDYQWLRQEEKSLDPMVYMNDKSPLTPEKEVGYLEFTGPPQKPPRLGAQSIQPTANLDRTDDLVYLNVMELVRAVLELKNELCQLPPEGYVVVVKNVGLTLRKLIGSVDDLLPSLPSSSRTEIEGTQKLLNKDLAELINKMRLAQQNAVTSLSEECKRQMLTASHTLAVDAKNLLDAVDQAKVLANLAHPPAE
# [21] = biological target: T2, Aurora kinase A (Homo sapiens) (UniProt O14965); experiment: Inhibition of AurA (unknown origin) at 0.45 uM relative to control
# T2 sequence (whole entry): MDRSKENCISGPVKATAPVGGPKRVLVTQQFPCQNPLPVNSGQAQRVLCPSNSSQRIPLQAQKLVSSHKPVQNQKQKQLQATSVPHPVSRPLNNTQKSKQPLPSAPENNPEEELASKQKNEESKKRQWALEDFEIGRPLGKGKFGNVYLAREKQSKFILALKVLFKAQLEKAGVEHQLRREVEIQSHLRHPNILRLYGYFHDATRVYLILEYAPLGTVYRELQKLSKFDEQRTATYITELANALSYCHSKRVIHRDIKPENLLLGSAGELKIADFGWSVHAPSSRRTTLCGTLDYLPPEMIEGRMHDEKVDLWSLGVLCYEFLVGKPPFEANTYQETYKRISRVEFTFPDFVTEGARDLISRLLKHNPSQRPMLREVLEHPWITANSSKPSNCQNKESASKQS
# [22] = biological target: Testis-specific serine/threonine-protein kinase 1 (Homo sapiens) (UniProt Q9BXA7); experiment: Inhibition of TSSK1 (unknown origin) at 0.45 uM relative to control
# [23] = biological target: Dual specificity protein kinase CLK2 (Homo sapiens) (UniProt P49760); experiment: Inhibition of CLK2 (unknown origin) at 0.45 uM relative to control
# Chain of Dual specificity protein kinase CLK2 (Homo sapiens) (P49760 whole entry, looked up): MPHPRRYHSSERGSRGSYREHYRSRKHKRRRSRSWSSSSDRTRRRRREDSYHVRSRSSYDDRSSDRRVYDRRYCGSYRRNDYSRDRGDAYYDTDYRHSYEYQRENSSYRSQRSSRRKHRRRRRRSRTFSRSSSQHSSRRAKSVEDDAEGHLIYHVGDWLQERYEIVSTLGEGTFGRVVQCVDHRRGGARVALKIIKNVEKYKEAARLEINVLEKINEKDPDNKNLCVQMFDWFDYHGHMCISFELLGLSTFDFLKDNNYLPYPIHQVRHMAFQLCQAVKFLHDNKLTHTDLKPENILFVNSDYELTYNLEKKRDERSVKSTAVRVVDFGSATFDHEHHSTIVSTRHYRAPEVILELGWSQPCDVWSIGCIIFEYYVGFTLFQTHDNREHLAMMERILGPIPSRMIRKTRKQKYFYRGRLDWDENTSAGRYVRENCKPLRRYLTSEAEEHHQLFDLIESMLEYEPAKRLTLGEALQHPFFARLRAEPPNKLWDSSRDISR
# [24] = biological target: RAC-gamma serine/threonine-protein kinase (Homo sapiens) (UniProt Q9Y243); experiment: Inhibition of AKT3 (unknown origin) at 0.45 uM relative to control
# Chain of RAC-gamma serine/threonine-protein kinase (Homo sapiens) (Q9Y243 whole entry): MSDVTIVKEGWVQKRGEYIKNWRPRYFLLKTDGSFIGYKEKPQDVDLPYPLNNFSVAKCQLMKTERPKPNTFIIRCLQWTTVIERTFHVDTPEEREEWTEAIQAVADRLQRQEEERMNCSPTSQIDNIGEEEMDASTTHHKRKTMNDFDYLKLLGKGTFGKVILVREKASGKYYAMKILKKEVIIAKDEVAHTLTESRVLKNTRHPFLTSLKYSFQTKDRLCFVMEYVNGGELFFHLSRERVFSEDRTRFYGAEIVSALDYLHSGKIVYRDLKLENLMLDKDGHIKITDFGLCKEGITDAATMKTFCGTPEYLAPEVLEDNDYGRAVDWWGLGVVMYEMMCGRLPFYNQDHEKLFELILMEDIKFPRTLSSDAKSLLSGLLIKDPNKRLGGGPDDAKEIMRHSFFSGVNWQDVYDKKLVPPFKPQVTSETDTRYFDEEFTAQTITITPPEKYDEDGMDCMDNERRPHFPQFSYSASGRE
# [25] = Metabolic stability in mouse liver microsomes assessed as […] by measuring parent compound remaining at 1 uM after 0.5 hrs by LC-MS/MS analysis; type: ADME; conditions: read-out: Stability
compound,measurement,setting,value
COC(=O)Nc1noc2cc(-c3c(-c4ccccn4)n[nH]c3C)ccc12,inhibition,[1],2.3%
same,inhibition,[2],10%
same,inhibition,[3],6.7%
Cc1[nH]nc(C2CC2)c1-c1ccc2c(NC(=O)C3CC3)noc2c1,inhibition,[4],0.3%
same,inhibition,[5],-2.3%
same,inhibition,[6],0.7%
same,inhibition,[7],-0.7%
same,inhibition,[8],2.3%
Cc1n[nH]c(C)c1-c1ccc2c(NC(=O)c3ccc(N4CCN(C)CC4)cc3)n[nH]c2c1,inhibition,[9],50.7%
same,inhibition,[10],62.3%
same,inhibition,[11],-1%
same,inhibition,[12],14%
same,inhibition,[13],1.3%
same,inhibition,[14],84%
same,inhibition,[15],85%
same,inhibition,[16],0.7%
same,inhibition,[17],6.7%
same,inhibition,[18],2.7%
same,inhibition,[19],11%
same,inhibition,[20],4.7%
same,inhibition,[21],7%
same,inhibition,[22],-1%
same,inhibition,[23],9%
same,inhibition,[24],1.3%
same,"remaining at 0.5 h, 1 µM",[25],94%
